# Experimental data reported in patent US9745289B2, “Aldosterone synthase inhibitors” (Boehringer Ingelheim International GmbH, priority 2014, dated 2017).
# Where “and” joins values, the source holds several entries; their conditions need not be identical. Equal entries are not always repeated.
# Biological target: cortisol synthase (CYP11B1) (Macaca fascicularis, UniProt A0A2K5ULY1)
# Assay: Inhibition of Cortisol Synthesis
# Format: biochemical, cynomolgus monkey
# Settings: cynomolgus adrenal gland mitochondria; 150 units of CYP11B1, 11-deoxycortisol as substrate, cortisol measured as product
# How it was run: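 Cynomolgus adrenal mitochondria as enzyme source (1 unit = 1 pmol product/h); 150 units CYP11B1 with 11-deoxycortisol substrate in 100 mM potassium phosphate pH 7.4, 1% DMSO, started with 1 mM NADPH, 90 min at 37 °C. Cortisol quantified by mass spectrometry; no-NADPH blank as 0%, no-compound as 100% activity.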
row,SMILES,IC50
1,"CCOc1cncc(C2COc3c(cccc3C(N)=O)O2)c1 (single isomer, unassigned) [Cpd 45A, 2-(5-ethoxy-pyridin-3-yl)-2,3-dihydro-benzo[1,4]dioxine-5-carboxylic acid amide]",0.21 µM
2,"CCOc1cncc(C2COc3c(cccc3C(N)=O)O2)c1 (single isomer, unassigned) [Cpd 45B, 2-(5-ethoxy-pyridin-3-yl)-2,3-dihydro-benzo[1,4]dioxine-5-carboxylic acid amide]",0.28 µM
3,"NC(=O)c1cccc2c1OCC(c1cncc(O[C@@H]3CCOC3)c1)O2 (single isomer, unassigned) [Cpd 46A]",7 µM
4,"NC(=O)c1cccc2c1OCC(c1cncc(O[C@@H]3CCOC3)c1)O2 (single isomer, unassigned) [Cpd 46B]",4.2 µM
5,"NC(=O)c1cccc2c1OCC(c1cncc(OC3CCOCC3)c1)O2 (single isomer, unassigned) [Cpd 47A, 2-[5-(Tetrahydro-pyran-4-yloxy)-pyridin-3-yl]-2,3-dihydro-benzo[1,4]dioxine-5-carboxylic acid amide]",8.5 µM
6,"NC(=O)c1cccc2c1OCC(c1cncc(OC3CCOCC3)c1)O2 (single isomer, unassigned) [Cpd 47B, 2-[5-(Tetrahydro-pyran-4-yloxy)-pyridin-3-yl]-2,3-dihydro-benzo[1,4]dioxine-5-carboxylic acid amide]",1.2 µM
7,"CC(C)C(=O)N1CCC(Oc2cncc(C3COc4c(cccc4C(N)=O)O3)c2)CC1 (single isomer, unassigned) [Cpd 48A, 2-[5-(1-isobutyryl-piperidin-4-yloxy)-pyridin-3-yl]-2,3-dihydro-benzo[1,4]dioxine-5-carboxylic acid amide]",3.1 µM
8,"CC(C)C(=O)N1CCC(Oc2cncc(C3COc4c(cccc4C(N)=O)O3)c2)CC1 (single isomer, unassigned) [Cpd 48B, 2-[5-(1-isobutyryl-piperidin-4-yloxy)-pyridin-3-yl]-2,3-dihydro-benzo[1,4]dioxine-5-carboxylic acid amide]",0.24 µM
9,"NC(=O)c1cccc2c1OCC(c1cncc(C(O)C(F)(F)F)c1)O2 (single isomer, unassigned) [Cpd 49AA, 2-[5-(2,2,2-Trifluoro-1-hydroxy-ethyl)-pyridin-3-yl]-2,3-dihydro-benzo[1,4]dioxine-5-carboxylic acid amide]",3.2 µM
10,"NC(=O)c1cccc2c1OCC(c1cncc(C(O)C(F)(F)F)c1)O2 (single isomer, unassigned) [Cpd 49AB, 2-[5-(2,2,2-Trifluoro-1-hydroxy-ethyl)-pyridin-3-yl]-2,3-dihydro-benzo[1,4]dioxine-5-carboxylic acid amide]",1.1 µM
11,"NC(=O)c1cccc2c1OCC(c1cncc(C(O)C(F)(F)F)c1)O2 (single isomer, unassigned) [Cpd 49BA, 2-[5-(2,2,2-Trifluoro-1-hydroxy-ethyl)-pyridin-3-yl]-2,3-dihydro-benzo[1,4]dioxine-5-carboxylic acid amide]",2.5 µM and 1.1 µM
12,"N#Cc1cccc2c1OCC(c1cncc(C3(O)CCOCC3)c1)O2 (single isomer, unassigned) [Cpd 50B, 2-[5-(4-Hydroxy-tetrahydro-pyran-4-yl)-pyridin-3-yl]-2,3-dihydro-benzo[1,4]dioxine-5-carbonitrile]",3.3 µM
13,"NC(=O)c1cccc2c1OCC(c1cncc(F)c1)O2 (single isomer, unassigned) [Cpd 51A, 2-(5-Fluoro-pyridin-3-yl)-2,3-dihydro-benzo[1,4]dioxine-5-carboxylic acid amide]",1.2 µM
14,"NC(=O)c1cccc2c1OCC(c1cncc(F)c1)O2 (single isomer, unassigned) [Cpd 51B, 2-(5-Fluoro-pyridin-3-yl)-2,3-dihydro-benzo[1,4]dioxine-5-carboxylic acid amide]",20 µM
15,"NC(=O)c1cccc2c1OCC(c1cncc3c1CCC3O)O2 (single isomer, unassigned) [Cpd 52AA, 2-(7-Hydroxy-6,7-dihydro-5H-[2]pyrindin-4-yl)-2,3-dihydro-benzo[1,4]dioxine-5-carboxylic acid amide]",4.1 µM
16,"NC(=O)c1cccc2c1OCC(c1cncc3c1CCC3O)O2 (single isomer, unassigned) [Cpd 52AB, 2-(7-Hydroxy-6,7-dihydro-5H-[2]pyrindin-4-yl)-2,3-dihydro-benzo[1,4]dioxine-5-carboxylic acid amide]",0.82 µM
17,"NC(=O)c1cccc2c1OCC(c1cncc3c1CCC3O)O2 (single isomer, unassigned) [Cpd 52BA, 2-(7-Hydroxy-6,7-dihydro-5H-[2]pyrindin-4-yl)-2,3-dihydro-benzo[1,4]dioxine-5-carboxylic acid amide]",16 µM
18,"NC(=O)c1cccc2c1OCC(c1cncc3c1CCC3O)O2 (single isomer, unassigned) [Cpd 52BB, 2-(7-Hydroxy-6,7-dihydro-5H-[2]pyrindin-4-yl)-2,3-dihydro-benzo[1,4]dioxine-5-carboxylic acid amide]",13 µM
19,"CCS(=O)(=O)NCc1cncc(C2COc3c(C#N)cccc3O2)c1 (single isomer, unassigned) [Cpd 54A, Ethanesulfonic acid [5-(5-cyano-2,3-dihydro-benzo[1,4]dioxin-2-yl)-pyridin-3-ylmethyl]-amide]",23 µM
20,"CCS(=O)(=O)NCc1cncc(C2COc3c(C#N)cccc3O2)c1 (single isomer, unassigned) [Cpd 54B, Ethanesulfonic acid [5-(5-cyano-2,3-dihydro-benzo[1,4]dioxin-2-yl)-pyridin-3-ylmethyl]-amide]",14 µM
21,"N#Cc1cccc2c1OCC(c1cncc(CC(=O)N3CC[C@@H](O)C3)c1)O2 (single isomer, unassigned) [Cpd 55A]",11 µM
22,"N#Cc1cccc2c1OCC(c1cncc(CC(=O)N3CC[C@@H](O)C3)c1)O2 (single isomer, unassigned) [Cpd 55B]",> 30 µM
23,"C[C@H](O)c1c(F)cncc1C1COc2c(cccc2C(N)=O)O1 (single isomer, unassigned) [Cpd 56A]",14 µM
24,"C[C@H](O)c1c(F)cncc1C1COc2c(cccc2C(N)=O)O1 (single isomer, unassigned) [Cpd 56B]",14 µM
25,"C[C@@H](O)c1c(F)cncc1C1COc2c(cccc2C(N)=O)O1 (single isomer, unassigned) [Cpd 57A]",16 µM
26,"C[C@@H](O)c1c(F)cncc1C1COc2c(cccc2C(N)=O)O1 (single isomer, unassigned) [Cpd 57B]",15 µM
27,"CC(C)(O)c1c(F)cncc1C1COc2c(cccc2C(N)=O)O1 (single isomer, unassigned) [Cpd 58A, 2-[5-Fluoro-4-(1-hydroxy-1-methyl-ethyl)-pyridin-3-yl]-2,3-dihydro-benzo[1,4]dioxine-5-carboxylic acid amide]",23 µM
28,"CC(C)(O)c1c(F)cncc1C1COc2c(cccc2C(N)=O)O1 (single isomer, unassigned) [Cpd 58B, 2-[5-Fluoro-4-(1-hydroxy-1-methyl-ethyl)-pyridin-3-yl]-2,3-dihydro-benzo[1,4]dioxine-5-carboxylic acid amide]",3 µM

# The next lines start with the values.
row,IC50,SMILES
1,1.1 µM,"Cc1cncc(C2COc3c(cccc3C(N)=O)O2)c1 (single isomer, unassigned) [Cpd 59A, 2-(5-Methyl-pyridin-3-yl)-2,3-dihydro-benzo[1,4]dioxine-5-carboxylic acid amide]"
2,0.89 µM,"Cc1cncc(C2COc3c(cccc3C(N)=O)O2)c1 (single isomer, unassigned) [Cpd 59B, 2-(5-Methyl-pyridin-3-yl)-2,3-dihydro-benzo[1,4]dioxine-5-carboxylic acid amide]"
3,> 30 µM,"CCS(=O)(=O)NC(c1cncc(C2COc3c(cccc3C(N)=O)O2)c1)C1CC1 (single isomer, unassigned) [Cpd 60AA]"
4,> 30 µM,"CCS(=O)(=O)NC(c1cncc(C2COc3c(cccc3C(N)=O)O2)c1)C1CC1 (single isomer, unassigned) [Cpd 60AB]"
5,> 30 µM,"CCS(=O)(=O)NC(c1cncc(C2COc3c(cccc3C(N)=O)O2)c1)C1CC1 (single isomer, unassigned) [Cpd 60BA]"
6,> 30 µM,"CCS(=O)(=O)NC(c1cncc(C2COc3c(cccc3C(N)=O)O2)c1)C1CC1 (single isomer, unassigned) [Cpd 60BB]"
7,25 µM,"Cc1c(C#N)cncc1C1COc2c(cccc2C(N)=O)O1 (single isomer, unassigned) [Cpd 61A, 2-(5-cyano-4-methyl-pyridin-3-yl)-2,3-dihydro-benzo[1,4]dioxine-5-carboxylic acid amide]"
8,22 µM,"Cc1c(C#N)cncc1C1COc2c(cccc2C(N)=O)O1 (single isomer, unassigned) [Cpd 61B, 2-(5-cyano-4-methyl-pyridin-3-yl)-2,3-dihydro-benzo[1,4]dioxine-5-carboxylic acid amide]"
9,> 30 µM,"CS(=N)(=O)Cc1cncc(C2COc3c(C#N)cccc3O2)c1 (single isomer, unassigned) [Cpd 62AA, 2-(5-{[imino(methyl)oxo-λ^6-sulfanyl]methyl}pyridin-3-yl)-2,3-dihydro-1,4-benzodioxine-5-carbonitrile]"
10,> 30 µM,"CS(=N)(=O)Cc1cncc(C2COc3c(C#N)cccc3O2)c1 (single isomer, unassigned) [Cpd 62AB, 2-(5-{[imino(methyl)oxo-λ^6-sulfanyl]methyl}pyridin-3-yl)-2,3-dihydro-1,4-benzodioxine-5-carbonitrile]"
11,14 µM,"CS(=N)(=O)Cc1cncc(C2COc3c(C#N)cccc3O2)c1 (single isomer, unassigned) [Cpd 62BA, 2-(5-{[imino(methyl)oxo-λ^6-sulfanyl]methyl}pyridin-3-yl)-2,3-dihydro-1,4-benzodioxine-5-carbonitrile]"
12,18 µM,"CS(=N)(=O)Cc1cncc(C2COc3c(C#N)cccc3O2)c1 (single isomer, unassigned) [Cpd 62BB, 2-(5-{[imino(methyl)oxo-λ^6-sulfanyl]methyl}pyridin-3-yl)-2,3-dihydro-1,4-benzodioxine-5-carbonitrile]"
